For 20 molecules, IC50 and inhibition results are on record in patent US20250281424A1 (New York Blood Center, Inc, priority 2020, published 2025).

The target in the assay is T1, human PF4 (Homo sapiens, UniProt P02776).
T1 construct: PF4 is a 70 amino acid, lysine-rich 7.8 kDa platelet-specific protein; made in house; host or cells: Escherichia coli BL21DE3 pLysS (pT7-7) and/or Drosophila S2 cells
T1 sequence (P02776 32-101): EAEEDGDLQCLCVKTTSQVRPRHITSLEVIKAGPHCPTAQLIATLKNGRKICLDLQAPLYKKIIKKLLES
Kind of assay: Inhibition of PF4 tetramer formation (BS3 cross-linking, SDS-PAGE). The assay is classed as biochemical. The following applies: for IC50: read-out: IC50 of PF4 tetramer formation inhibition; for inhibition at 1 µM: 1 μM inhibitor; for inhibition at 1 µM / inhibition at 3 µM / inhibition at 5 µM / inhibition at 10 µM: read-out: % inhibition of PF4 tetramer formation at single concentration of inhibitor; for inhibition at 3 µM: 3 μM inhibitor (column A); for inhibition at 5 µM: 5 μM inhibitor; for inhibition at 10 µM: 10 μM inhibitor (column A). The method in brief:
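Recombinant human wild-type PF4 (E. coli-expressed, heparin-purified), 10 μg/ml in PBS, incubated with compound 15 min at 37° C or 60 min at room temperature, then cross-linked with 0.2 mM BS3 for 30 min at room temperature. Reducing 12% SDS-PAGE; bands quantified as % tetramer, trimer, dimer, monomer versus compound-free control.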

As for `Cc1ccccc1NC(=O)C1C(=O)c2ccc(C(=O)c3ccc4c(c3)C(=O)C(C(=O)Nc3ccccc3C)C4=O)cc2C1=O` (centres unmarked) [Example 81, N-(2-methylphenyl)-5-{2-[(2-methylphenyl)carbamoyl]-1,3-dioxo-2,3-dihydro-1H-indene-5-carbonyl}-1,3-dioxo-2,3-dihydro-1H-indene-2-carboxamide], the IC50 came out at 4.6 µM.

`CC(C)(C)OC(=O)N1CCCC[C@@H]1C(=O)C1C(=O)c2ccc(C(=O)c3ccc4c(c3)C(=O)C(C(=O)[C@H]3CCCCN3C(=O)OC(C)(C)C)C4=O)cc2C1=O` (stereo partly drawn) [Example 275, tert-butyl (2R)-2-(5-{2-[(2R)-1-[(tert-butoxy)carbonyl]piperidine-2-carbonyl]-1,3-dioxo-2,3-dihydro-1H-indene-5-carbonyl}-1,3-dioxo-2,3-dihydro-1H-indene-2-carbonyl)piperidine-1-carboxylate]: the inhibition at 1 µM amounted to 5%, the inhibition at 3 µM came out at 31% and the IC50 was found to be 3 µM.

On to `Cc1ccccc1C(=O)CCC(=O)C1C(=O)c2ccc(C(=O)c3ccc4c(c3)C(=O)C(C(=O)CCC(=O)c3ccccc3C)C4=O)cc2C1=O` (centres unmarked) [Example 252, 2-[4-(2-methylphenyl)-4-oxobutanoyl]-5-{2-[4-(2-methylphenyl)-4-oxobutanoyl]-1,3-dioxo-2,3-dihydro-1H-indene-5-carbonyl}-2,3-dihydro-1H-indene-1,3-dione], for which the inhibition at 1 µM turned out to be 14%, the inhibition at 3 µM was found to be 37% and the IC50 turned out to be 3 µM.

For the molecule `O=C(NC1CC1)C1C(=O)c2ccc(C#Cc3ccc4c(c3)C(=O)C(C(=O)NC3CC3)C4=O)cc2C1=O` (centres unmarked) [Example 300, N-cyclopropyl-5-{2-[2-(cyclopropylcarbamoyl)-1,3-dioxo-2,3-dihydro-1H-inden-5-yl]ethynyl}-1,3-dioxo-2,3-dihydro-1H-indene-2-carboxamide], the inhibition at 1 µM turned out to be 22% and the inhibition at 3 µM was found to be 32%.

For `CC(C)(C)OC(=O)N1CCC[C@H]1C(=O)C1C(=O)c2ccc(-c3ccc4c(c3)C(=O)C(C(=O)[C@@H]3CCCN3C(=O)OC(C)(C)C)C4=O)cc2C1=O` (stereo partly drawn) [Example 209, tert-butyl (2S)-2-{2′-[(2S)-1-[(tert-butoxy)carbonyl]pyrrolidine-2-carbonyl]-1,1′,3,3′-tetraoxo-1H,1′H,2H,2′H,3H,3′H-[5,5′-biindene]-2-carbonyl}pyrrolidine-1-carboxylate], the inhibition at 5 µM was 75%, the inhibition at 10 µM stood at 96% and the IC50 worked out at 4.2 µM.

`COCCC(=O)C1C(=O)c2ccc(C(=O)c3ccc4c(c3)C(=O)C(C(=O)CCOC)C4=O)cc2C1=O` (centres unmarked) [Example 176, 2-(3-methoxypropanoyl)-5-[2-(3-methoxypropanoyl)-1,3-dioxo-2,3-dihydro-1H-indene-5-carbonyl]-2,3-dihydro-1H-indene-1,3-dione]: the inhibition at 5 µM was 21% and the inhibition at 10 µM stood at 77%.

On to `O=C(c1ccc2c(c1)C(=O)C(C(=O)NCc1ccc(F)cc1)C2=O)c1ccc2c(c1)C(=O)C(C(=O)NCc1ccc(F)cc1)C2=O` (centres unmarked) [Example 26, 5,5′-carbonylbis(1,3-dioxo-indan-2-carboxylic acid ((4-fluorophenyl)methyl)-amide)], for which the inhibition at 5 µM was determined as 59%, the inhibition at 10 µM was 66% and the IC50 stood at 3.61 µM.

Consider `CCNC(=O)C1C(=O)c2ccc(S(=O)(=O)c3ccc4c(c3)C(=O)C(C(=O)NCC)C4=O)cc2C1=O` (centres unmarked) [Example 336, N-ethyl-5-{[2-(ethylcarbamoyl)-1,3-dioxo-2,3-dihydro-1H-inden-5-yl]sulfonyl}-1,3-dioxo-2,3-dihydro-1H-indene-2-carboxamide], for which the inhibition at 1 µM was determined as 25% and the inhibition at 3 µM worked out at 35%.

Take `O=C(c1ccc2c(c1)C(=O)C(C(=O)NCC1CC1)C2=O)c1ccc2c(c1)C(=O)C(C(=O)NCC1CC1)C2=O` (centres unmarked) [Example 76, N-(cyclopropylmethyl)-5-{2-[(cyclopropylmethyl)carbamoyl]-1,3-dioxo-2,3-dihydro-1H-indene-5-carbonyl}-1,3-dioxo-2,3-dihydro-1H-indene-2-carboxamide]: the IC50 stood at 2.1 µM.

Turning to `CC(C)(C)OC(=O)N1CC[C@@H](C(=O)C2C(=O)c3ccc(C(=O)c4ccc5c(c4)C(=O)C(C(=O)[C@@H]4CCN(C(=O)OC(C)(C)C)C4)C5=O)cc3C2=O)C1` (stereo partly drawn) [Example 375, tert-butyl (3R)-3-(5-{2-[(3R)-1-[(tert-butoxy)carbonyl]pyrrolidine-3-carbonyl]-1,3-dioxo-2,3-dihydro-1H-indene-5-carbonyl}-1,3-dioxo-2,3-dihydro-1H-indene-2-carbonyl)pyrrolidine-1-carboxylate], the inhibition at 1 µM came out at 14% and the inhibition at 3 µM stood at 32%.

With `COC(=O)c1ccccc1NC(=O)C1C(=O)c2ccc(S(=O)(=O)c3ccc4c(c3)C(=O)C(C(=O)Nc3ccccc3C(=O)OC)C4=O)cc2C1=O` (centres unmarked) [Example 97, methyl 2-{5-[(2-{[2-(methoxycarbonyl)phenyl]carbamoyl}-1,3-dioxo-2,3-dihydro-1H-inden-5-yl)sulfonyl]-1,3-dioxo-2,3-dihydro-1H-indene-2-amido}benzoate], the inhibition at 5 µM was 100%, the inhibition at 10 µM amounted to 100% and the IC50 was determined as 8.9 µM.

Consider `CC(C)(C)OC(=O)N1CC[C@H]1C(=O)C1C(=O)c2ccc(C(=O)c3ccc4c(c3)C(=O)C(C(=O)[C@@H]3CCN3C(=O)OC(C)(C)C)C4=O)cc2C1=O` (stereo partly drawn) [Example 115, tert-butyl (2S)-2-(5-{2-[(2S)-1-[(tert-butoxy)carbonyl]azetidine-2-carbonyl]-1,3-dioxo-2,3-dihydro-1H-indene-5-carbonyl}-1,3-dioxo-2,3-dihydro-1H-indene-2-carbonyl)azetidine-1-carboxylate], for which the IC50 is 3.3 µM.

As to `O=C(Cc1cccc(F)c1F)C1C(=O)c2ccc(Oc3ccc4c(c3)C(=O)C(C(=O)Cc3cccc(F)c3F)C4=O)cc2C1=O` (centres unmarked) [Example 260, 2-[2-(2,3-difluorophenyl)acetyl]-5-({2-[2-(2,3-difluorophenyl)acetyl]-1,3-dioxo-2,3-dihydro-1H-inden-5-yl}oxy)-2,3-dihydro-1H-indene-1,3-dione], the inhibition at 1 µM was determined as 11% and the inhibition at 3 µM is 46%.

With `C=CCNC(=O)C1C(=O)c2ccc(C(=O)c3ccc4c(c3)C(=O)C(C(=O)NCC=C)C4=O)cc2C1=O` (centres unmarked) [Example 65, 5,5′-carbonylbis(n-allyl-1,3-dioxo-2,3-dihydro-1h-indene-2-carboxamide)], the inhibition at 5 µM amounted to 50% and the inhibition at 10 µM turned out to be 71%.

As to `O=C1c2ccc(Oc3ccc4c(c3)C(=O)C(C(=O)C3CCCS3(=O)=O)C4=O)cc2C(=O)C1C(=O)C1CCCS1(=O)=O` (centres unmarked) [Example 370, 2-(5-{[2-(1,1-dioxo-1λ^6-thiolane-2-carbonyl)-1,3-dioxo-2,3-dihydro-1H-inden-5-yl]oxy}-1,3-dioxo-2,3-dihydro-1H-indene-2-carbonyl)-1λ^6-thiolane-1,1-dione], the inhibition at 1 µM was 3% and the inhibition at 3 µM amounted to 6%.

With `O=C(c1ccc2c(c1)C(=O)C(C(=O)CC1CCCC1)C2=O)c1ccc2c(c1)C(=O)C(C(=O)CC1CCCC1)C2=O` (centres unmarked) [Example 141, 2-(2-cyclopentylacetyl)-5-[2-(2-cyclopentylacetyl)-1,3-dioxo-2,3-dihydro-1H-indene-5-carbonyl]-2,3-dihydro-1H-indene-1,3-dione], the inhibition at 5 µM was 38% and the inhibition at 10 µM turned out to be 68%.

On to `COCCOCCNCC(=O)C1C(=O)c2ccc(C(=O)c3ccc4c(c3)C(=O)C(C(=O)CNCCOCCOC)C4=O)cc2C1=O` (centres unmarked) [Example 393, 2-(2-{[2-(2-methoxyethoxy)ethyl]amino}acetyl)-5-[2-(2-{[2-(2-methoxyethoxy)ethyl]amino}acetyl)-1,3-dioxo-2,3-dihydro-1H-indene-5-carbonyl]-2,3-dihydro-1H-indene-1,3-dione], for which the inhibition at 1 µM is 1% and the inhibition at 3 µM is 4%.

Take `O=C(CC1CC1)C1C(=O)c2ccc(S(=O)(=O)c3ccc4c(c3)C(=O)C(C(=O)CC3CC3)C4=O)cc2C1=O` (centres unmarked) [Example 149, 2-(2-cyclopropylacetyl)-5-{[2-(2-cyclopropylacetyl)-1,3-dioxo-2,3-dihydro-1H-inden-5-yl]sulfonyl}-2,3-dihydro-1H-indene-1,3-dione]: the inhibition at 5 µM was 64% and the inhibition at 10 µM worked out at 53%.

For `O=C(c1ccc2c(c1)C(=O)C(C(=O)Nc1ccc(Cl)cc1)C2=O)c1ccc2c(c1)C(=O)C(C(=O)Nc1ccc(Cl)cc1)C2=O` (centres unmarked) [Example 78, N-(4-chlorophenyl)-5-{2-[(4-chlorophenyl)carbamoyl]-1,3-dioxo-2,3-dihydro-1H-indene-5-carbonyl}-1,3-dioxo-2,3-dihydro-1H-indene-2-carboxamide], the IC50 turned out to be 1.4 µM.

Regarding `CC(C(=O)C1C(=O)c2ccc(C(=O)c3ccc4c(c3)C(=O)C(C(=O)C(C)c3ccc(F)cc3)C4=O)cc2C1=O)c1ccc(F)cc1` (centres unmarked) [Example 242, 2-[2-(4-fluorophenyl)propanoyl]-5-{2-[2-(4-fluorophenyl)propanoyl]-1,3-dioxo-2,3-dihydro-1H-indene-5-carbonyl}-2,3-dihydro-1H-indene-1,3-dione], the inhibition at 1 µM came out at 13% and the inhibition at 3 µM was 31%.

The term IC50 denotes the midpoint of a concentration-inhibition curve.
